Test results as given in patent publication US20250017959A1 (priority 2021, published 2025).

Test system: HSPC-pDC

Q: `CC[C@@H]1[C@H](F)C(=O)N[C@@H]1COc1nccc2cc(C(N)=O)c(OC)cc12` [IRAK4 inhibitor, Pf06650833] was tested. Which cell viability did it give?
A: Its cell viability is “without major effects”.
